We go through four molecules from patent US10293026B2, “Agent for preventing or treating demyelinating disease” (Osaka University, priority 2014, dated 2019).

Assay [1] relates to oligodendrocyte precursor cells. The experiment in a line: BrdU uptake by oligodendrocyte precursor cells with culture supernatant of cardiomyocytes and FGFR inhibitors (Example 1). The format is cell-based, C57BL/6j mice. The note with it: SU5402 at 10, 30, 100 μM or PD173074 at 0.03, 0.1, 0.3, 1 μM added with supernatant; FIG. 1. The procedure: Hearts extracted from C57BL/6j mice (postnatal day 1-old) were minced, and then poured into 1 mg/ml of Type 1 collagenase (Worthington) and shaken at 37° C. for 20 minutes. The obtained cell suspension was pipetted and allowed to stand, and then the supernatant was collected. Remaining cardiomyocytes after the collection of the supernatant were again poured into 1 mg/ml of Type 1 collagenase (Worthington) and shaken at 37° C. for 20 minutes, and then the supernatant was collected. This operation was repeated three times. The collected supernatant was suspended in MEM ([…]) containing 5% calf serum, and the cell suspension was poured into a culture dish. After 30 minutes, suspension cells were collected, and were resuspended in MEM containing 5% calf serum and then centrifuged (2000 rpm, 6 minutes). […]
The harvested oligodendrocyte precursor cells were seeded in a poly-L-lysine (Sigma)-coated plastic tissue culture dish, and cultured in a medium for 1 day (37° C., 5% CO2). […] Bromodeoxyuridine (BrdU) was subsequently added and cultured at 37° C. for 24 hours, and then the cells were collected; the BrdU uptake was then detected using the cell proliferation ELISA, BrdU colorimetric kit (Roche). As a control, the BrdU uptake was measured under the same conditions as those described above, except that the culture supernatant of cardiomyocytes was not added. […]

Assay [2] has the same test system. The experiment in a line: BrdU uptake by oligodendrocyte precursor cells with recombinant FGFs (Example 3). The format is cell-based, C57BL/6j mice. Conditions: FGF at 10, 30 or 100 ng/ml, vs saline control; FIG. 3. The procedure: Recombinant FGF15 (Abcam), FGF21 (R&D), or FGF23 (R&D) was diluted in saline solution immediately before use to prepare an each FGF-containing solution. Oligodendrocyte precursor cells were harvested from C57BL/6j mice (postnatal day 1-old) brains, as in Example 1.
Initially, the oligodendrocyte precursor cells were seeded in a poly-L-lysinde (Sigma)-coated plastic tissue culture dish, and cultured in the following medium for 1 day (37° C., 5% CO2). The medium used was DMEM containing 4 mM L-gludamine (Sigma), 1 mM sodium pyruvate (Sigma), 0.1% bovine serum albumin (Sigma), 50 μg/ml apo-Transferrin (Sigma), 5 μg/ml insulin (Sigma), 30 nM sodium selenite (Sigma), 10 nM biotin (Sigma), 10 nM hydrocortisone (Sigma), 10 ng/ml Platelet-Derived Growth Factor-AA (Peprotech), and 10 ng/ml basic fibroblast growth factor (Peprotech). Thereafter, each type of FGF-containing solution was added to the culture medium of oligodendrocyte precursor cells such that the concentration of each type of FGF was 10 ng/ml, 30 ng/ml, or 100 ng/ml, and the cells were cultured at 37° C. for 24 hours. BrdU was subsequently added and cultured at 37° C. for 24 hours, and then the cells were collected; the BrdU uptake was then detected using the cell proliferation ELISA, BrdU colorimetric kit (Roche). As a control, an equivalent amount of saline solution was used instead of the FGF21-containing solution, and the BrdU uptake was measured under the same conditions as those described above. This experiment studied three cases for each group.

Consider `CCN(CC)CCCCNc1ncc2cc(-c3cc(OC)cc(OC)c3)c(NC(=O)NC(C)(C)C)nc2n1` [PD173074], for which the “increase in the BrdU uptake by culture supernatant of cardiomyocytes” value in assay [1] is on record as “suppressed”.

For the molecule `Cc1c[nH]c(/C=C2\C(=O)Nc3ccccc32)c1CCC(=O)O` [SU5402], the “increase in the BrdU uptake by culture supernatant of cardiomyocytes” value in assay [1] was “suppressed”.

B1: FGF23: Recombinant FGF23 (R&D), comparison FGF subtype (protein, UniProt Q9GZV9 25-251, looked up)
Fibroblast growth factor 23: YPNASPLLGSSWGGLIHLYTATARNSYHLQIHKNGHVDGAPHQTIYSALMIRSEDAGFVVITGVMSRRYLCMDFRGNIFGSHYFDPENCRFQHQTLENGYDVYHSPQYHFLVSLGRAKRAFLPGMNPPPYSQFLSRRNEIPLIHFNTPIPRRHTRSAEDDSERDPLNVLKPRARMTPAPASCSQELPSAEDNSPMASDPLGVVRGGRVNTHAGGTGPEGCRPFAKFI
Turning to B1, the “BrdU uptake by the oligodendrocyte precursor cells” value in assay [2] was “significant difference in the amounts of BrdU uptake was not observed”.

B2: FGF15: Recombinant FGF15 (Abcam), comparison FGF subtype (protein, UniProt O35622 26-218, looked up)
Fibroblast growth factor 15: RPLAQQSQSVSDEDPLFLYGWGKITRLQYLYSAGPYVSNCFLRIRSDGSVDCEEDQNERNLLEFRAVALKTIAIKDVSSVRYLCMSADGKIYGLIRYSEEDCTFREEMDCLGYNQYRSMKHHLHIIFIQAKPREQLQDQKPSNFIPVFHRSFFETGDQLRSKMFSLPLESDSMDPFRMVEDVDHLVKSPSFQK
For B2, the “BrdU uptake by the oligodendrocyte precursor cells” value in assay [2] is given as “significant difference in the amounts of BrdU uptake was not observed”.
